Reference: ChEMBL document CHEMBL1137364, “Synthesis and structure-activity relationships of uracil nucleotide derivatives and analogues as agonists at human P2Y2, P2Y4, and P2Y6 receptors” (J Med Chem, 2006)
Calls of active or inactive are those of the source. The rule behind the calls is not given here.

How the values were obtained:
P2Y purinoceptor 2 [1] = target: T1, P2Y purinoceptor 2 (Homo sapiens, UniProt P41231); test: Agonist activity at human P2Y2 receptor expressed in 1321N1 cells assessed as IP accumulation by SPA at 1 uM; format: functional, cell-based
P2Y purinoceptor 6 [2] = target: T2, P2Y purinoceptor 6 (Homo sapiens, UniProt Q15077); test: Agonist activity at human P2Y6 receptor expressed in 1321N1 cells assessed as IP accumulation by SPA; format: functional, cell-based
Target sequence in this assay (Q15077 whole entry): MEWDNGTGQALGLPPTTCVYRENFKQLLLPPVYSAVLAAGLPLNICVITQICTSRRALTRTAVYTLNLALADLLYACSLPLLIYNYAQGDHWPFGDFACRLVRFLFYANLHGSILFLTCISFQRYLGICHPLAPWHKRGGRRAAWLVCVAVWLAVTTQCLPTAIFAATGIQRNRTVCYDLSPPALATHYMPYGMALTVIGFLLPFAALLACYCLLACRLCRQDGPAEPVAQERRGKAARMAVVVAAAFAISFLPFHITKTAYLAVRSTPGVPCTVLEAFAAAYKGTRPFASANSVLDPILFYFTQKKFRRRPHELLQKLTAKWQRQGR

P2Y purinoceptor 2 [3] = target: T1, P2Y purinoceptor 2; test: Agonist activity at human P2Y2 receptor expressed in 1321N1 cells assessed as IP accumulation by SPA; format: functional, cell-based
P2Y purinoceptor 4 [4] = target: T3, P2Y purinoceptor 4 (Homo sapiens, UniProt P51582); test: Agonist activity at human P2Y4 receptor expressed in 1321N1 cells assessed as IP accumulation by SPA at 100 uM; format: functional, cell-based
Target sequence in this assay (P51582 whole entry): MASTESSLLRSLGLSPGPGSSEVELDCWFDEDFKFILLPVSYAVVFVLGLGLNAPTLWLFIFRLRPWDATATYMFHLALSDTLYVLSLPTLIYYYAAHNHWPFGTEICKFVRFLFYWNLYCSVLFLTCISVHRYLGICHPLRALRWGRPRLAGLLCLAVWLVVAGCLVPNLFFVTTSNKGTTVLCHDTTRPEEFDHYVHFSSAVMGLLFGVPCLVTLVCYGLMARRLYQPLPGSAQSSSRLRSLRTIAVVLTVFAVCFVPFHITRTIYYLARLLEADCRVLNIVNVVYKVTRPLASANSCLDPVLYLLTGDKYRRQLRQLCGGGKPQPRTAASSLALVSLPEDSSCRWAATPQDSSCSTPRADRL

P2Y purinoceptor 4 [5] = target: T3, P2Y purinoceptor 4; test: Agonist activity at human P2Y4 receptor expressed in 1321N1 cells assessed as IP accumulation by SPA; format: functional, cell-based
Target sequence in this assay (P51582 whole entry): as above

P2Y purinoceptor 2 [6] = target: T1, P2Y purinoceptor 2; test: Agonist activity at human P2Y2 receptor expressed in 1321N1 cells assessed as IP accumulation by SPA at 100 uM; format: functional, cell-based
P2Y purinoceptor 6 [7] = target: T2, P2Y purinoceptor 6; test: Agonist activity at human P2Y6 receptor expressed in 1321N1 cells assessed as IP accumulation by SPA at 1 uM; format: functional, cell-based
Target sequence in this assay (Q15077 whole entry): as the sequence (Q15077 whole entry) above

P2Y purinoceptor 6 [8] = target: T2, P2Y purinoceptor 6; test: Agonist activity at human P2Y6 receptor expressed in 1321N1 cells assessed as IP accumulation by SPA at 100 uM; format: functional, cell-based
Target sequence in this assay (Q15077 whole entry): as above

P2Y purinoceptor 6 [9] = target: T2, P2Y purinoceptor 6; test: Antagonist activity at human P2Y6 receptor assessed as inhibition of UDP-induced IP accumulation at 100 uM
Target sequence in this assay (Q15077 whole entry, looked up): as the sequence (Q15077 whole entry) above

P2Y purinoceptor 4 [10] = target: T3, P2Y purinoceptor 4; test: Agonist activity at human P2Y4 receptor expressed in 1321N1 cells assessed as IP accumulation by SPA at 1 uM; format: functional, cell-based
Target sequence in this assay (P51582 whole entry): as the sequence (P51582 whole entry) above

Homo sapiens [11] = species on record: Homo sapiens; test: Selectivity for human P2Y6 over P2Y4
P2Y purinoceptor 6 [12] = target: P2Y purinoceptor 6 (Rattus norvegicus, UniProt Q63371); test: Agonist activity at rat P2Y6 receptor assessed as IP accumulation by SPA; format: functional
Homo sapiens [13] = species on record: Homo sapiens; test: Selectivity for human P2Y6 over P2Y2
P2Y purinoceptor 4 [14] = target: T3, P2Y purinoceptor 4; test: Antagonist activity at human P2Y4 receptor assessed as inhibition of UTP-induced IP accumulation at 100 uM
Target sequence in this assay (P51582 whole entry, looked up): as the sequence (P51582 whole entry) above

P2Y purinoceptor 2 [15] = target: T1, P2Y purinoceptor 2; test: Antagonist activity at human P2Y2 receptor assessed as inhibition of UTP-induced IP accumulation at 100 uM; format: functional

T1 sequence (P41231 whole entry): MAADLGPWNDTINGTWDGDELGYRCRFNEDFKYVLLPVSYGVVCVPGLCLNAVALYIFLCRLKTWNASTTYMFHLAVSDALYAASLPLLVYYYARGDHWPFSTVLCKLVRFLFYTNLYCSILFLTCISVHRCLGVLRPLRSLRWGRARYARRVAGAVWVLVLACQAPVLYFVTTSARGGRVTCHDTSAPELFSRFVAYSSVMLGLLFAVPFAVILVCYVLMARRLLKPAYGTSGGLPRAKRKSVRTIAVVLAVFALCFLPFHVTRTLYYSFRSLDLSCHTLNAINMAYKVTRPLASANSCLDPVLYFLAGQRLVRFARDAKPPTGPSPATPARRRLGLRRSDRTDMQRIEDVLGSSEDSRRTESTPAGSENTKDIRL
P2Y purinoceptor 6 (Rattus norvegicus, UniProt Q63371), sequence (Q63371 whole entry): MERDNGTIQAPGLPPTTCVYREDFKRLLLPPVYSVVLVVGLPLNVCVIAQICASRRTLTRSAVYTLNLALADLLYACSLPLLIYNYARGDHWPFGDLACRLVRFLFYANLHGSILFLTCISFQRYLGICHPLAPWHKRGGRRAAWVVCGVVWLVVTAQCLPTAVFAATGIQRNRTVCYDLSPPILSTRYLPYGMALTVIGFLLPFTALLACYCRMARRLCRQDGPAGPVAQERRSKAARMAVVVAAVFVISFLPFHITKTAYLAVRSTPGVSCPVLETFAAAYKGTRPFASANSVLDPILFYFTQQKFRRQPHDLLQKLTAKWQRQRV

Activity (P2Y purinoceptor 2 [1]) [%] | EC50 (P2Y purinoceptor 6 [2]) [nM] | EC50 (P2Y purinoceptor 2 [3]) [nM] | Activity (P2Y purinoceptor 4 [4]) [%] | EC50 (P2Y purinoceptor 4 [5]) [µM] | Activity (P2Y purinoceptor 2 [6]) [%] | Activity (P2Y purinoceptor 6 [7]) [%] | Activity (P2Y purinoceptor 6 [8]) [%] | Activity (P2Y purinoceptor 6 [9]) | Activity (P2Y purinoceptor 4 [10]) [%] | Ratio (Homo sapiens [11]) | EC50 (P2Y purinoceptor 6 [12]) [nM] | Ratio (Homo sapiens [13]) | Activity (P2Y purinoceptor 4 [14]) | Activity (P2Y purinoceptor 2 [15]) | Structure (SMILES)
25 | > 1000 | > 1000 | 7 | > 100 | 69 | 0 | 108 | – | – | – | – | – | – | – | Cc1cc(=O)n([C@@H]2O[C@H](COP(=O)(O)OP(=O)(O)O)[C@@H](O)[C@H]2O)c(=O)[nH]1
– | > 1000 | > 100000 | 0 | > 100 | 28 | – | 23 | inactive | – | – | – | – | – | – | CCCc1cc(=O)n([C@@H]2O[C@H](COP(=O)(O)OP(=O)(O)O)[C@@H](O)[C@H]2O)c(=O)[nH]1
24 | > 100000 | > 1000 | 1 | > 100 | 69 | – | 8 | – | – | – | – | – | – | – | CCCc1cc(=O)n([C@@H]2O[C@H](COP(=O)(O)OP(=O)(O)OP(=O)(O)O)[C@H]3OP(=O)(O)O[C@H]32)c(=O)[nH]1
– | 42 | – | – | – | – | – | – | – | – | – | – | – | – | – | O=c1ccn([C@@H]2O[C@H](COP(=O)(O)OP(=O)(O)O)[C@@H](O)[C@H]2O)c(=O)[nH]1 [URIDINE_DIPHOSPHATE]
– | 291 | 347 | – | 3.46 | – | – | – | – | – | – | – | – | – | – | O=c1[nH]c(=O)n([C@@H]2O[C@H](COP(=O)(O)OP(=O)(O)OP(=O)(O)O)[C@@H](O)[C@H]2O)cc1Br
– | 151 | 3670 | – | 7.2 | – | – | – | – | – | 48 | 130 | 24 | – | – | O=c1[nH]c(=O)n([C@@H]2O[C@H](COP(=O)(O)OP(=O)(O)O)[C@@H](O)[C@H]2O)cc1Br
– | – | 43 | – | 0.087 | – | – | – | – | – | – | – | – | – | – | O=c1ccn([C@@H]2O[C@H](COP(=O)(O)OP(=O)(O)OP(=O)(O)O)[C@@H](O)[C@H]2O)c(=O)[nH]1 [URIDINE TRIPHOSPHATE]
16 | > 100000 | > 1000 | 4 | > 100 | 83 | 0 | 23 | inactive | – | – | – | – | inactive | inactive | CCCc1cc(=O)n([C@@H]2O[C@H](COP(=O)(O)OP(=O)(O)OP(=O)(O)O)[C@@H](O)[C@H]2O)c(=O)[nH]1
– | > 100000 | > 100000 | 6 | > 100 | 17 | – | 2 | – | – | – | – | – | – | – | Cc1cc(=O)n([C@@H]2O[C@H](COP(=O)(O)O)[C@@H](O)[C@H]2O)c(=O)[nH]1
18 | > 1000 | > 1000 | 29 | > 100 | 93 | 0 | 72 | inactive | 8 | – | – | – | inactive | inactive | Cc1cc(=O)n([C@@H]2O[C@H](COP(=O)(O)OP(=O)(O)OP(=O)(O)O)[C@@H](O)[C@H]2O)c(=O)[nH]1
– | 120 | 354 | – | 3.99 | – | – | – | – | – | – | – | – | – | – | O=c1[nH]c(=O)n([C@@H]2O[C@H](COP(=O)(O)OP(=O)(O)C(Cl)(Cl)P(=O)(O)O)[C@@H](O)[C@H]2O)cc1Br
6 | > 100000 | > 1000 | 12 | > 100 | 80 | 0 | 43 | inactive | 11 | – | – | – | inactive | inactive | O=c1cc(O)n([C@@H]2O[C@H](COP(=O)(O)OP(=O)(O)OP(=O)(O)O)[C@@H](O)[C@H]2O)c(=O)[nH]1
– | > 1000 | 564 | – | 2.92 | – | 2 | 109 | – | – | – | – | – | – | – | Cn1c(=O)ccn([C@@H]2O[C@H](COP(=O)(O)OP(=O)(O)OP(=O)(O)O)[C@@H](O)[C@H]2O)c1=O
– | > 1000 | 50 | – | 1.77 | – | 44 | 118 | – | – | – | – | – | – | – | O=c1ccn([C@@H]2O[C@H](COP(=O)(O)OP(=O)(O)OP(=O)(O)O)[C@@H](O)[C@H]2O)c(=S)[nH]1
– | > 100000 | > 100000 | 5 | > 100 | 9 | – | 26 | – | – | – | – | – | – | – | CCCc1cc(=O)n([C@@H]2O[C@H](COP(=O)(O)O)[C@@H](O)[C@H]2O)c(=O)[nH]1

Second part, the compound before the results:

Structure (SMILES) | Activity (P2Y purinoceptor 2 [1]) [%] | EC50 (P2Y purinoceptor 6 [2]) [nM] | EC50 (P2Y purinoceptor 2 [3]) [nM] | Activity (P2Y purinoceptor 4 [4]) [%] | EC50 (P2Y purinoceptor 4 [5]) [µM] | Activity (P2Y purinoceptor 2 [6]) [%] | Activity (P2Y purinoceptor 6 [7]) [%] | Activity (P2Y purinoceptor 6 [8]) [%] | Activity (P2Y purinoceptor 6 [9]) | Activity (P2Y purinoceptor 4 [10]) [%] | Ratio (Homo sapiens [11]) | EC50 (P2Y purinoceptor 6 [12]) [nM] | Ratio (Homo sapiens [13]) | Activity (P2Y purinoceptor 4 [14]) | Activity (P2Y purinoceptor 2 [15])
Cn1c(=O)ccn([C@@H]2O[C@H](COP(=O)(O)OP(=O)(O)O)[C@@H](O)[C@H]2O)c1=O | 10 | > 1000 | > 1000 | 0 | > 100 | 99 | 8 | 121 | – | – | – | – | – | – | –
O=C(Cn1c(=O)ccn([C@@H]2O[C@H](COP(=O)(O)OP(=O)(O)O)[C@@H](O)[C@H]2O)c1=O)c1ccccc1 | 22 | 70 | > 1000 | 11 | > 100 | 85 | – | – | – | – | – | – | – | – | –
O=C(Cn1c(=O)ccn([C@@H]2O[C@H](COP(=O)(O)OP(=O)(O)OP(=O)(O)O)[C@@H](O)[C@H]2O)c1=O)c1ccccc1 | 38 | > 1000 | > 1000 | 54 | > 1 | 103 | 27 | 100 | – | 10 | – | – | – | – | –
O=c1ccn([C@@H]2O[C@H](COP(=O)(O)O)[C@@H](O)[C@H]2O)c(=S)[nH]1 | 6 | > 100000 | ≥ 100000 | 2 | > 100 | 51 | – | 18 | – | – | – | – | – | – | –
O=c1ccn([C@@H]2O[C@H](COP(=O)(O)OP(=O)(O)O)[C@@H](O)[C@H]2O)c(=S)[nH]1 | 42 | 239 | > 1000 | 73 | > 1 | 91 | – | – | – | 18 | – | – | – | – | –
O=C(Cn1c(=O)ccn([C@@H]2O[C@H](COP(=O)(O)OP(=O)(O)OP(=O)(O)O)[C@@H](O)[C@H]2OP(=O)(O)O)c1=O)c1ccccc1 | 54 | > 1000 | ≤ 1000 | 0 | > 100 | 107 | 0 | 75 | – | – | – | – | – | – | –
Cn1c(=O)ccn([C@@H]2O[C@H](COP(=O)(O)O)[C@@H](O)[C@H]2O)c1=O | 3 | ≥ 100000 | > 100000 | 3 | > 100 | 30 | 0 | 51 | – | – | – | – | – | – | –
O=c1[nH]c(=O)n([C@@H]2O[C@H](COP(=O)(O)O)[C@@H](O)[C@H]2O)cc1Br | 2 | > 1000 | > 1000 | 21 | > 100 | 70 | 43 | 124 | – | – | – | – | – | – | –
O=C(Cn1c(=O)ccn([C@@H]2O[C@H](COP(=O)(O)O)[C@@H](O)[C@H]2O)c1=O)c1ccccc1 | – | > 100000 | > 100000 | 2 | > 100 | 9 | – | 16 | inactive | – | – | – | – | inactive | inactive
O=c1cc(O)n([C@@H]2O[C@H](COP(=O)(O)O)[C@@H](O)[C@H]2O)c(=O)[nH]1 | – | > 100000 | > 100000 | 11 | > 100 | 11 | – | 0 | – | – | – | – | – | – | –
